Where a name gives a salt, the structure may show the parent alone.
What was measured:
[1] = biological target: T1, SYK (Homo sapiens, UniProt P43405); assay: biochemical; details: SYK lysate from anti-IgM stimulated Ramos B cells, Y7 Sox peptide 5 μM, ATP 35 μM; read-out: average plC50
T1 construct: The cell pellet was then lysed in ice-cold lysis buffer containing 1% triton-x-100; endogenous in cells; host or cells: Ramos B cells (human Burkitt's lymphoma, clone 296.4C10, ATCC), stimulated with anti-IgM antibody, clarified Triton X-100 lysate
Protocol: 1. Basic SYK Enzyme Activity
3 μl of SYK lysate diluted 16-fold in assay buffer (20 mM TRIS pH 7.4, 0.01% BSA, 0.1% Pluronic F-68) was added to wells containing 0.1 μl of various concentrations of compound or DMSO vehicle (1.7% final) in a Greiner low volume 384 well black plate. […]
i. Preparation of Ramos Cell Lysates
Cells were grown in Corning Cellstacks (6360 cm^2) in 1 litre volume and viability and cell density were monitored daily. Cells were maintained at <1.5×10e6/ml and >92% viability ii. Stimulation of Ramos Cells with Anti-IgM Ab to Produce Syk & Preparation of Lysates Cells were stimulated at 20×10^6 cells/ml using 15 ug/ml (final concentration) anti-IgM antibody. Following harvest (as described above), a total of 4×10^9 cells were resuspended in 180 mls pre-warmed (37° C.) DPBS in a Corning 500 ml centrifuge bottle. 20 mls anti-IgM antibody at 150 ug/ml were added to each 500 ml centrifuge bottle. (working stock made up in DPBS pre-warmed to 37° C.). Cells were incubated for exactly 5 minutes at 37° C. following the addition of anti IgM antibody. Following 5 minutes stimulation, 300 mls ice-cold DPBS were added to each bottle to stop the stimulation (temperature drops to ˜12 deg C.) then cells were centrifuged at 2000 rpm (Sorvall Legend RT+centrifuge—pre-chilled to 4 deg C.). Cells were washed by resuspension in ice-cold DPBS and centrifugation as above. The cell pellet was then lysed in ice-cold lysis buffer containing 1% triton-x-100 at a ratio of 150 ul/1×10^7 cells (i.e. […] lysis buffer). Following the addition of lysis buffer, the cells were pipetted up & down & kept on ice for 15 minutes. The clarified lysate was then obtained by centrifugation (Sorvall Evolution RC (SLA-1500 rotor, ˜20,000 g (˜14,500 rpm), 45 min, 4° C.).
Lysate was aliquoted, snap-frozen on dry-ice & stored at −80° C. prior to assay.

[2] = cited from earlier work
[3] = system: B lymphoma (BKS-2); details: murine BKS-2 B lymphoma model; cited from earlier work

Structure (SMILES)	IC50 [1] [µM]	further results
O=C1CN(c2cc3nccnc3c(NC[C@H]3CCCNC3)n2)CCN1 [Example 30, 4-(5-{[(3S)-3-piperidinylmethyl]amino}pyrido[3,4-b]pyrazin-7-yl)-2-piperazinone, hydrochloride]	≤ 10	
Cc1noc(C)c1-c1cc2nccnc2c(NCC2(F)CCCNC2)n1 (stereo not drawn) [Example 157, 7-(dimethyl-1,2-oxazol-4-yl)-N-[(3-fluoropiperidin-3-yl)methyl]pyrido[3,4-b]pyrazin-5-amine hydrochloride]	≤ 10	
COc1cc(Nc2ncc(F)c(Nc3ccc4c(n3)N(COP(=O)(O)O)C(=O)C(C)(C)O4)n2)cc(OC)c1OC [Example R788, fostamatinib disodium]		therapeutic benefit ([2]; patients with DLBCL and CLL/SLL): therapeutic benefit; tolerability ([2]; patients with relapsed or refractory B-Cell NHL): well-tolerated
COc1cc(/C=C/C(=O)CC(=O)/C=C/c2ccc(O)c(OC)c2)ccc1O [curcumin]		tumour burden as measured by the total splenocyte number [3]: significant reduction

Further lines, with some results ahead:

IC50 [1] [µM]	Structure (SMILES)	further results
≤ 10	CC1CCC(CNc2nc(-c3cnn(C)c3)cc3nccnc23)CN1 (single isomer, unassigned) [Example 176, 7-(1-methyl-1H-pyrazol-4-yl)-N-[(6-methylpiperidin-3-yl)methyl]pyrido[3,4-b]pyrazin-5-amine hydrochloride, single unknown enantiomer]	
≤ 10	Cn1nccc1-c1cc2nccnc2c(NC[C@@H]2CNCCO2)n1 [Example 92, 7-(1-methyl-1H-pyrazol-5-yl)-N-[(2S)-morpholin-2-ylmethyl]pyrido[3,4-b]pyrazin-5-amine hydrochloride]	
≤ 10	COc1cncc(-c2cc3nccnc3c(NCC3(F)CCCNC3)n2)c1 (stereo not drawn) [Example 128, N-[(3-fluoropiperidin-3-yl)methyl]-7-(5-methoxypyridin-3-yl)pyrido[3,4-b]pyrazin-5-amine]	
≤ 10	Fc1ccc(-c2cc3nccnc3c(NCC3(F)CCCNC3)n2)c(F)c1 (stereo not drawn) [Example 166, 7-(2,4-difluorophenyl)-N-[(3-fluoropiperidin-3-yl)methyl]pyrido[3,4-b]pyrazin-5-amine]	

Source: patent publication US20140005188A1, “PYRIDO[3,4-B]PYRAZINE DERIVATIVES AS SYK INHIBITORS” (GLAXO GROUP LIMITED, priority 2011, published 2014)
